The target of assay [1] is Kappa-type opioid receptor (Homo sapiens, UniProt P41145).
Another assay has as its target Mu-type opioid receptor (Homo sapiens, UniProt P35372).
Assay [2] has as its target Delta-type opioid receptor (Homo sapiens, UniProt P41143).

pKi: −log10 of the molar value.

Sequence of Delta-type opioid receptor (P41143 whole entry): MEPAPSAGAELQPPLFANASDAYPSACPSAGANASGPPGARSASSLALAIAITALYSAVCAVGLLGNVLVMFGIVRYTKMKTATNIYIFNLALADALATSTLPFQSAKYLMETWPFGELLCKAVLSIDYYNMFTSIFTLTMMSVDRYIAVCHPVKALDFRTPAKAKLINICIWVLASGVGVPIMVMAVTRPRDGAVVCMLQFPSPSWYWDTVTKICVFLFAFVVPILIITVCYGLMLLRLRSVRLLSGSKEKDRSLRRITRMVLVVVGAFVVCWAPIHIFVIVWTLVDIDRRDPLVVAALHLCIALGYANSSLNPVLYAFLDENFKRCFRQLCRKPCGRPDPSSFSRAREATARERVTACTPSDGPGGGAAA
Sequence of Kappa-type opioid receptor (P41145 whole entry): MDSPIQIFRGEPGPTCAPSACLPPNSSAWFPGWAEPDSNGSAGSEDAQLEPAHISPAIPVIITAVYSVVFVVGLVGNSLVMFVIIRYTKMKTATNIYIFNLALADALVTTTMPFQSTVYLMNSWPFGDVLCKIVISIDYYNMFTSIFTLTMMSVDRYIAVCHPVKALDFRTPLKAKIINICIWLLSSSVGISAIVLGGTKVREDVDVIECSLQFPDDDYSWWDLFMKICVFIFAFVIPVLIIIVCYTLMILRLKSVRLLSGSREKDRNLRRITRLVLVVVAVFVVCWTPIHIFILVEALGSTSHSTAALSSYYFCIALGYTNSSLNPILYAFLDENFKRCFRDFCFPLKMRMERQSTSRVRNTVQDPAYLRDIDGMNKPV
Sequence of Mu-type opioid receptor (P35372 whole entry): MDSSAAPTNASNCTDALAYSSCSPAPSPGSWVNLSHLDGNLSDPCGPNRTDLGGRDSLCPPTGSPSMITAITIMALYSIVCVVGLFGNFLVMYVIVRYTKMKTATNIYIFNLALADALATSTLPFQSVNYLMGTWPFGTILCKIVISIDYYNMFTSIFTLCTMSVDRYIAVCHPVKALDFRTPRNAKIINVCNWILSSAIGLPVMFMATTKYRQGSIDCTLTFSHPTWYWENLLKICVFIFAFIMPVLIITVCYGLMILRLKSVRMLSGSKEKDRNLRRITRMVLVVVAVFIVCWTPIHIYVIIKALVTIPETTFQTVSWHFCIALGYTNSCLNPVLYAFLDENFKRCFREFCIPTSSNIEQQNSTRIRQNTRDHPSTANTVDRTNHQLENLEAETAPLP

For the compound `C[C@H](NC(=O)CNC(=O)[C@@H](NC(=O)[C@H](Cc1ccccc1)NC(=O)CNC(=O)CNC(=O)CNCc1ccccc1)[C@@H](C)O)C(=O)N[C@@H](CCCN=C(N)N)C(=O)N[C@@H](CCCCN)C(=O)N[C@@H](CO)C(=O)N[C@@H](C)C(=O)N[C@@H](CCCN=C(N)N)C(=O)N[C@@H](CCCCN)C(N)=O` [H-PHE-(R)-GLY-GLY-PHE-THR-GLY-ALA-ARG-LYS-SER-ALA-ARG-LYS-NH2], the pKi (as a rule, −log10 of the Ki, conventionally taken in molar units) in assay [1] is 5.96; at Mu-type opioid receptor, below 5.00; in assay [2], below 5.00.
In the case of `CC(=O)N[C@@H](CCCN=C(N)N)C(=O)N[C@H](CC1CCCCC1)C(=O)N[C@H]1CC[C@@H]2SC[C@@H](C(=O)N[C@H](CCCN=C(N)N)C(=O)N[C@H](Cc3ccc(Cl)cc3)C(N)=O)N2C1=O` [NOCICEPTIN RECEPTOR ANTAGONIST PEPTIDE III-BTD], the figures for the pKi (in assay [1]; at Mu-type opioid receptor; in assay [2]) were 7.94, 8.05 and 7.22, respectively.

The record behind these values is BindingDB's records for doi:10.1007/s002100000327 (Leicester Royal Infirmary, 2001).
